# Data taken from patent publication US8957051B2, “Bicyclic 1, 2, 4-oxadiazoles derivatives as sphingosine-1 phosphate receptors modulators” (Allergan, Inc., priority 2012, dated 2015).
# Biological target: T1, human S1P1 receptor (Homo sapiens, UniProt P21453)
# T1 construct: expressed in transfected cells; membranes were used
# Assay: GTP γ35S binding assay for S1P1 activity
# Format: biochemical
# Details: membranes of cells stably expressing S1P1 receptor, agonist potency
# Protocol: Compounds were synthesized and tested for S1P1 activity using the GTP γ^355 binding assay. These compounds may be assessed for their ability to activate or block activation of the human S1P1 receptor in cells stably expressing the S1P1 receptor.
# GTP γ^355 binding was measured in the medium containing (mM) HEPES 25, pH 7.4, MgCl2 10, NaCl 100, dithiothreitol 0.5, digitonin 0.003%, 0.2 nM GTP γ^355, and 5 μg membrane protein in a volume of 150 μl. Test compounds were included in the concentration range from 0.08 to 5,000 nM unless indicated otherwise. Membranes were incubated with 100 μM 5′-adenylylimidodiphosphate for 30 min, and subsequently with 10 μM GDP for 10 min on ice. Drug solutions and membrane were mixed, and then reactions were initiated by adding GTP γ^355 and continued for 30 min at 25° C. Reaction mixtures were filtered over Whatman GF/B filters under vacuum, and washed three times with 3 mL of ice-cold buffer (HEPES 25, pH7.4, MgCl2 10 and NaCl 100). Filters were dried and mixed with scintillant, and counted for ^35S activity using a β-counter. Agonist-induced GTP γ^355 binding was obtained by subtracting that in the absence of agonist. Binding data were analyzed using a non-linear regression method. In case of antagonist assay, the reaction mixture contained 10 nM […] in the presence of test antagonist at concentrations ranging from 0.08 to 5000 nM.
# T1 sequence (P21453 whole entry): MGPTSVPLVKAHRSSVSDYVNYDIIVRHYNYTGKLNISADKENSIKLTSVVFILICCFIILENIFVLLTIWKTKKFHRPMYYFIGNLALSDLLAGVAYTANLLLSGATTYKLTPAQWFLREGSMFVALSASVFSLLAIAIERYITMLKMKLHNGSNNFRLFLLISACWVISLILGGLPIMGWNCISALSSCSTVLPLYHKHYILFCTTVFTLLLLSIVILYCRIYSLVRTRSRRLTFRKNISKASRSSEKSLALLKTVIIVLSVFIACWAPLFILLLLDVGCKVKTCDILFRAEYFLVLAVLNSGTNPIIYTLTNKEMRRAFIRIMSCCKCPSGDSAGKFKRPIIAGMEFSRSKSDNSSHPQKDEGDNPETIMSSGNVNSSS
row,EC50 [nM],SMILES
1,3.52,"O=P(O)(O)CCCNCc1ccc(-c2noc(CCCCc3ccccc3)n2)c2cccnc12 [Compound 1, {3-[({5-[5-(4-Phenylbutyl)-1,2,4-oxadiazol-3-yl]quinolin-8-yl}methyl)amino]propyl}phosphonic acid]"
2,9.87,"O=P(O)(O)CCCNCc1ccc(-c2noc(CCCc3ccccc3)n2)c2cccnc12 [Compound 2, {3-[({5-[5-(3-Phenylpropyl)-1,2,4-oxadiazol-3-yl]quinolin-8-yl}methyl)amino]propyl}phosphonic acid]"
3,46.7,"O=P(O)(O)CCCNCc1ccc(-c2noc(CCCCCc3ccccc3)n2)c2cccnc12 [Compound 3, {3-[({5-[5-(5-Phenylpentyl)-1,2,4-oxadiazol-3-yl]quinolin-8-yl}methyl)amino]propyl}phosphonic acid]"
4,24.9,"O=P(O)(O)CCCNCc1ccc(-c2noc(CCCCc3ccccc3)n2)c2ccccc12 [Compound 4, {3-[({4-[5-(4-Phenylbutyl)-1,2,4-oxadiazol-3-yl]-1-naphthyl}methyl)amino]propyl}phosphonic acid]"
5,22.4,"O=P(O)(O)OCCNCc1ccc(-c2noc(CCCCc3ccccc3)n2)c2ccccc12 [Compound 6, 2-[({4-[5-(4-Phenylbutyl)-1,2,4-oxadiazol-3-yl]-1-naphthyl}methyl)amino]ethyl dihydrogen phosphate]"
